Reference: patent US6908909B2, “Liquid oral compositions comprising a calcium compound and an acidulant” (SmithKline Beecham plc, priority 1996, dated 2005)

Assay: In-vitro study of phosphorus liberated from teeth exposed to citric acid solutions
Settings: for Mean amount Phosphorus liberated (μg) ± 1 SD: 0.3% citric acid
Experimental: To investigate the importance of calcium supplementation on exposure of enamel to citric acid solutions, five experiments were undertaken, each using eight teeth. The teeth were first subjected to prophylaxis, washed with saline and then covered in an acid resistant wax with the exception of a 5 mm diameter experimental window.
In each experiment the teeth were subjected to six consecutive 5 min exposures with 0.3% citric acid solutions at a flow rate of 0.1 ml/min. The citric acid solutions were supplemented with either 0.0, 0.5, 1.5, 2.5, 5.0, 7.5 10 or 15 mM calcium in the form of calcium hydroxide and the pH was adjusted to 3.5 or 3.8 using 1.0 M sodium hydroxide. Samples of residual citric acid were collected after every 5 min exposure of the teeth and these were frozen at −4° C., prior to phosphorus analysis by the method of Chen et al (1956) Analytical Chemistry, Vol.28, p1956-8.

| SMILES | Mean amount Phosphorus liberated (μg) ± 1 SD (calcium 0 mM (mol ratio calcium:acid 0.00), pH 3.5) [µg] | Mean amount Phosphorus liberated (μg) ± 1 SD (calcium 0 mM (mol ratio calcium:acid 0.00), pH 3.8) [µg] | Mean amount Phosphorus liberated (μg) ± 1 SD (calcium 0.5 mM (mol ratio calcium:acid 0.03), pH 3.5) [µg] | Mean amount Phosphorus liberated (μg) ± 1 SD (calcium 0.5 mM (mol ratio calcium:acid 0.03), pH 3.8) [µg] | Mean amount Phosphorus liberated (μg) ± 1 SD (calcium 1.5 mM (mol ratio calcium:acid 0.10), pH 3.5) [µg] | Mean amount Phosphorus liberated (μg) ± 1 SD (calcium 1.5 mM (mol ratio calcium:acid 0.10), pH 3.8) [µg] | Mean amount Phosphorus liberated (μg) ± 1 SD (calcium 2.5 mM (mol ratio calcium:acid 0.17), pH 3.5) [µg] | Mean amount Phosphorus liberated (μg) ± 1 SD (calcium 2.5 mM (mol ratio calcium:acid 0.17), pH 3.8) [µg] | Mean amount Phosphorus liberated (μg) ± 1 SD (calcium 5 mM (mol ratio calcium:acid 0.35), pH 3.5) [µg] | Mean amount Phosphorus liberated (μg) ± 1 SD (calcium 5 mM (mol ratio calcium:acid 0.35), pH 3.8) [µg] | Mean amount Phosphorus liberated (μg) ± 1 SD (calcium 7.5 mM (mol ratio calcium:acid 0.52), pH 3.5) [µg] | Mean amount Phosphorus liberated (μg) ± 1 SD (calcium 7.5 mM (mol ratio calcium:acid 0.52), pH 3.8) [µg] | Mean amount Phosphorus liberated (μg) ± 1 SD (calcium 10 mM (mol ratio calcium:acid 0.70), pH 3.5) [µg] | Mean amount Phosphorus liberated (μg) ± 1 SD (calcium 10 mM (mol ratio calcium:acid 0.70), pH 3.8) [µg] | Mean amount Phosphorus liberated (μg) ± 1 SD (calcium 15 mM (mol ratio calcium:acid 1.05), pH 3.5) [µg] | Mean amount Phosphorus liberated (μg) ± 1 SD (calcium 15 mM (mol ratio calcium:acid 1.05), pH 3.8) [µg] | effect on erosive potential of a 0.3% citric acid solution (in words) (addition of calcium to 0.3% citric acid solution, effect greatest up to calcium to acid molar ratio of about 0.5) |
| --- | --- | --- | --- | --- | --- | --- | --- | --- | --- | --- | --- | --- | --- | --- | --- | --- | --- |
| O=C(O)CC(O)(CC(=O)O)C(=O)O [citric acid, reference compound] | 1.41 ± 0.11 | 1.26 ± 0.17 | – | – | – | – | – | – | – | – | – | – | – | – | – | – | – |
| [Ca+2].[OH-].[OH-] [calcium, calcium hydroxide] | – | – | 1.25 ± 0.14 | 1.02 ± 0.09 | 1.07 ± 0.15 | 0.83 ± 0.12 | 1.22 ± 0.14 | 0.63 ± 0.13 | 0.79 ± 0.06 | 0.46 ± 0.13 | 0.72 ± 0.1 | 0.32 ± 0.10 | 0.46 ± 0.13 | 0.24 ± 0.11 | 0.3 ± 0.10 | 0.14 ± 0.07 | reduces its erosive potential |
